From patent publication US20190105194A1, “METHODS OF TREATING A SUBJECT WITH AN OCULAR CONDITION RESPONSIVE TO STEROID THERAPY” (Aciont Inc., priority 2017, published 2019)
Values joined by “and” are separate entries in the source; they are usually repeats but may differ in a detail not shown here. Equal entries are not always repeated. Where two headings read alike, the source gives them in different places. Each block holds one compound with its values, some of them ahead of it.

What was measured:
[1] = system: New Zealand White rabbits; settings: rabbit, in vivo
[2] = system: New Zealand White (NZW) rabbits; settings: rabbit, in vivo
[3] = system: New Zealand White rabbits; settings: rabbit, in vivo; remark: listed apart in the source
[4] = in vivo
[5] = in vivo; settings: rabbit
[6] = rabbit, in vivo, 1 mg; cited from earlier work
[7] = human, in vivo, 1 mg; cited from earlier work
[8] = system: rabbit coronary microvessel endothelium; settings: cited from earlier work

IOP effects related to dosing [1]: no IOP effects related to dosing | IOP increase (mild effect) ([2]; both, New Zealand White): 5-8 mmHg | IOP increase (absolute value) compared to control eye change, immediately after application ([2]; male, New Zealand White): 2 mmHg | IOP increase (absolute value) compared to control eye change, immediately after treatment ([2]; male, New Zealand White): 8 mmHg | change in IOP within one hour after treatment ([2]; male, New Zealand White): 4 mmHg | effect on the IOP of the treated eye (statistical analysis) [2]: no effect | time for IOP to return to a normal range after treatment [2]: within one half hour | time for IOP to return to below baseline after treatment [2]: within one half hour | time for IOP to return to normal after treatment [2]: within one half hour | corneal surface covered by corneal haze lesion ([3]; New Zealand White, 4 weeks): about 40% | typical conjunctival injection score immediately after treatment ([3]; New Zealand White, 12 weeks): 1 or <1 | Ocular Histopathology [3]: NSF | histopathology of eyes [3]: morphologically normal | nature of ocular findings (conjunctival injection, discharge, corneal haze) in treated eyes [3]: transient and mild in nature | half-life of the drug in the rabbit [4]: 120 to 180 min | Tmax [5]: 5 min
Structure (SMILES): C[C@@H]1C[C@H]2[C@@H]3CCC4=CC(=O)C=C[C@]4(C)[C@@]3(F)[C@@H](O)C[C@]2(C)[C@@]1(O)C(=O)COP(=O)(O)O [DSP, dexamethasone sodium phosphate]
histopathology finding [3]: mild chronic inflammation at the limbus of the cornea | Cmax after IV injection [6]: 786 ng/mL | Cmax after IV injection [7]: 10.5 ng/mL

Tmax of DEX in plasma ([4]; rabbit): 30 min
Structure (SMILES): C[C@@H]1C[C@H]2[C@@H]3CCC4=CC(=O)C=C[C@]4(C)[C@@]3(F)[C@@H](O)C[C@]2(C)[C@@]1(O)C(=O)CO [DEX, dexamethasone]
concentration that can inhibit prostaglandin release [8]: 10^−7 M and ~40 ng/mL
